Marks after values point to notes of the source that are not given here.
What was measured:
[1] = system: apomorphine-induced emesis; test: Emetic challenge study (apomorphine-induced emesis) in beagle dogs; assay type: in vivo, beagle dog; conditions: 3.0 mg/kg oral, apomorphine 0.1 mg/kg iv 2 hours later, five dogs; APO control 28
Protocol: Over the five (5) weeks of the study, each animal receives each of the treatments, but only one per week. The purpose of this study is to determine if tradipitant suppresses apomorphine-induced emesis.
The mid dose of tradipitant is the approximate half-log interval between the low and high doses.
All animals are dosed over a period of five (5) weeks, with each dog receiving one of five different treatments on each day of dosing.
All dogs are fasted overnight prior to each treatment day and then fed approximately one (1) hour after oral dosing (approximately one (1) hour prior to administration of apomorphine). Individual doses are adjusted weekly for changes in body weight.
The dose regimen consists of a 5×5 Latin square design, in which each subject receives 1 dose or dose combination per week (6 day washout) as shown in Table 3 below.

[2] = target: T1, NK-1 receptor (Meriones unguiculatus, UniProt Q5DUB1); test: NK-1 agonist (GR73632, icv)-induced foot-tapping behavior in gerbils; assay type: in vivo; conditions: gerbil, 1 mg/kg
T1 construct: centrally acting NK-1 receptor antagonist in vivo in the gerbil; from tissue; host or cells: brain of living Mongolian gerbils
T1 sequence (Q5DUB1 whole entry): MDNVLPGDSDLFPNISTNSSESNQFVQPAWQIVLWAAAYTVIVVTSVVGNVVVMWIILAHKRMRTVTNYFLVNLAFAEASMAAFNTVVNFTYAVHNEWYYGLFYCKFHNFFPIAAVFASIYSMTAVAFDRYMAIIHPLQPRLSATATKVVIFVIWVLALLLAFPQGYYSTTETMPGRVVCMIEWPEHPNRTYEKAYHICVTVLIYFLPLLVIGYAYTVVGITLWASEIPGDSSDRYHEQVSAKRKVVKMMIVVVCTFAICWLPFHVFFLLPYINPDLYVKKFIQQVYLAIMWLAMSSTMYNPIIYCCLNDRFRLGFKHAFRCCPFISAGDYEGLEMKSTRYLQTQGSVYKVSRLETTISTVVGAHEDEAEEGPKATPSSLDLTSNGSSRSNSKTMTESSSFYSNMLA
Protocol: Male Mongolian gerbils (Harlan Sprague Dawley, Indianapolis, IN) weighing 26 to 40 grams are administered the selective neurokinin-1 receptor agonist GR73632 (3 pmol) via direct, vertical, free-hand intracerebroventricular (icy) injection to a depth of 4.5 mm below bregma with a cuffed 27-gauge needle attached to a 50 μl Hamilton syringe. Immediately after injection, animals are placed individually into isolated chambers with pressure-sensitive velocimeter platform floors (San Diego Instruments acoustic startle apparatus) that detect and quantify vibration. The San Diego Instruments “SR” DOS-based computer program is used on a PC to record the number of foot-taps over the following 6 to 10 minutes, beginning 30 seconds after the floor is lightly tapped. […] The total number and average intensity of events over the duration is determined. Total number of taps is analyzed with one-way ANOVA and post-hoc Dunnett's test using JMP statistical software.
A dose-response curve (with doses of 0.3, 1, 3 and 10 pmols, icy) is initially generated with the NK-1 agonist GR73632.
NK-1 antagonists are tested for their ability to attenuate GR73632-induced foot tapping. NK-1 antagonists are administered (po) via oral feeding tube at doses and time points specified in each experiment. […]
NK-1 antagonists are administered at multiple doses (at least 3; one dose per animal) and response to GR73632 is measured. […]

[3] = system: vomiting due to motion sickness; conditions: crossover study; cited from earlier work

| Compound | Total No. Emetic Episodes [1] | time after administration up to which foot-tapping behavior is inhibited [2] | dogs in which occurrence of vomiting was reduced as compared to placebo [3] |
| --- | --- | --- | --- |
| C[C@@H](O[C@H]1OCCN(Cc2n[nH]c(=O)[nH]2)[C@H]1c1ccc(F)cc1)c1cc(C(F)(F)F)cc(C(F)(F)F)c1 [Aprepitant, reference compound] | 1** | up to 24 hours |  |
| COc1ccc(C(C)(C)C)cc1CN[C@H]1C2CCN(CC2)[C@H]1C(c1ccccc1)c1ccccc1 [Maropitant] |  |  | over 75% |
